Measured values from ChEMBL document CHEMBL5131399, “Broadening antifungal spectrum and improving metabolic stablity based on a scaffold strategy: Design, synthesis, and evaluation of novel 4-phenyl-4,5-dihydrooxazole derivatives as potent fungistatic and fungicidal reagents” (Eur J Med Chem, 2022).
Converted amounts (≈) assume the structure as drawn.

Legend:
Candida albicans [1] = test: Antifungal activity against Candida albicans ATCC SC5314 assessed as fungal growth inhibition by NCCLS protocol based method; type: functional
Candida albicans [2] = test: Antifungal activity against Candida albicans CPCC400616 assessed as fungal growth inhibition by NCCLS protocol based method; type: functional
Candida tropicalis = test: Antifungal activity against Candida tropicalis CGMCC 2.3739 assessed as fungal growth inhibition by NCCLS protocol based method; type: functional
Cryptococcus neoformans = test: Antifungal activity against Cryptococcus neoformans CGMCC 2.3161 assessed as fungal growth inhibition by NCCLS protocol based method; type: functional
Candida parapsilosis = test: Antifungal activity against Candida parapsilosis GIM2.190 assessed as fungal growth inhibition by NCCLS protocol based method; type: functional; conditions: Lodderomyces parapsilosis
Nakaseomyces glabratus = test: Antifungal activity against Candida glabrata clinical isolate assessed as fungal growth inhibition by NCCLS protocol based method; type: functional
Pichia kudriavzevii = test: Antifungal activity against Candida krusei GIM2.1 assessed as fungal growth inhibition by NCCLS protocol based method; type: functional
Aspergillus fumigatus = test: Antifungal activity against Aspergillus fumigatus CGMCC3.7795 assessed as fungal growth inhibition by NCCLS protocol based method; type: functional
Candida albicans [3] = test: Antifungal activity against FLC-resistant Candida albicans CaR assessed as fungal growth inhibition by NCCLS protocol based method; type: functional
Candida albicans [4] = test: Antifungal activity against FLC-resistant Candida albicans 901 assessed as fungal growth inhibition by NCCLS protocol based method; type: functional
Candida albicans [5] = test: Antifungal activity against FLC-resistant Candida albicans 904 assessed as fungal growth inhibition by NCCLS protocol based method; type: functional
Candida albicans [6] = test: Antifungal activity against FLC-resistant Candida albicans 632 assessed as fungal growth inhibition by NCCLS protocol based method; type: functional
Candida albicans [7] = test: Antifungal activity against FLC-resistant Candida albicans 100 assessed as fungal growth inhibition by NCCLS protocol based method; type: functional
Candida albicans [8] = test: Antifungal activity against FLC-resistant Candida albicans 103 assessed as fungal growth inhibition by NCCLS protocol based method; type: functional
Candida albicans [9] = test: Antifungal activity against FLC-resistant Candida albicans 311 assessed as fungal growth inhibition by NCCLS protocol based method; type: functional
Candida albicans [10] = test: Antibiofilm activity against FLC-resistant Candida albicans CPCC400616 assessed as assessed as inhibition of biofilm formation measured at 3 hrs by XTT reduction assay; type: functional
Candida albicans [11] = test: Antibiofilm activity against FLC-resistant Candida albicans CPCC400616 assessed as assessed as inhibition of biofilm formation measured at 6 hrs by XTT reduction assay; type: functional
Candida albicans [12] = test: Antibiofilm activity against FLC-resistant Candida albicans CPCC400616 assessed as assessed as inhibition of biofilm formation measured at 18 hrs by XTT reduction assay; type: functional
Candida albicans [13] = test: Antibiofilm activity against FLC-resistant Candida albicans CPCC400616 assessed as assessed as inhibition of biofilm formation measured at 24 hrs by XTT reduction assay; type: functional
Candida albicans [14] = test: Fungicidal activity against Candida albicans CPCC400616 assessed as minimum inhibitory concentration incubated for 48 hrs; type: functional
Candida albicans [15] = test: Fungicidal activity against Candida albicans CPCC400616 assessed as minimum fungicidal concentration incubated for 48 hrs; type: functional
Candida albicans [16] = test: […] for fungicidal activity against Candida albicans CPCC400616; type: functional
[17] = Cytotoxicity against human HEK293T cells assessed as inhibition of cell growth incubated for 4 hrs by MTT assay; type: toxicity, cell-based, HEK-293T
A549 = test: Cytotoxicity against human A549 cells assessed as inhibition of cell growth incubated for 4 hrs by MTT assay; type: functional, cell-based; conditions: A549, 4 h
MCF7 = test: Cytotoxicity against human MCF7 cells assessed as inhibition of cell growth incubated for 4 hrs by MTT assay; type: functional, cell-based; conditions: MCF7, 4 h
HepG2 = test: Cytotoxicity against human HepG2 cells assessed as inhibition of cell growth incubated for 4 hrs by MTT assay; type: functional, cell-based; conditions: HepG2, 4 h

SMILES	MIC (Candida albicans [1]) [µg/mL]	MIC (Candida albicans [2]) [µg/mL]	MIC (Candida tropicalis) [µg/mL]	MIC (Cryptococcus neoformans) [µg/mL]	MIC (Candida parapsilosis) [µg/mL]	MIC (Nakaseomyces glabratus) [µg/mL]	MIC (Pichia kudriavzevii) [µg/mL]	MIC (Aspergillus fumigatus) [µg/mL]	MIC (Candida albicans [3]) [µg/mL]	MIC (Candida albicans [4]) [µg/mL]	MIC (Candida albicans [5]) [µg/mL]	MIC (Candida albicans [6]) [µg/mL]	MIC (Candida albicans [7]) [µg/mL]	MIC (Candida albicans [8]) [µg/mL]	MIC (Candida albicans [9]) [µg/mL]	also measured
OC(Cn1cncn1)(Cn1cncn1)c1ccc(F)cc1F [FLUCONAZOLE]	0.5 (≈ 1.63 µM)	1 (≈ 3.27 µM)	0.5 (≈ 1.63 µM)	4 (≈ 13.1 µM)	2 (≈ 6.53 µM)	4 (≈ 13.1 µM)	8 (≈ 26.1 µM)	> 64	> 64	> 64	> 64	> 64	> 64	> 64	> 64	MIC50 (Candida albicans [10]): 32 µg/mL (≈ 104 µM); MIC50 (Candida albicans [11]): > 64 µg/mL; MIC50 (Candida albicans [12]): > 64 µg/mL; MIC50 (Candida albicans [13]): > 64 µg/mL; MIC (Candida albicans [14]): 0.5 µg/mL (≈ 1.63 µM); MFC (Candida albicans [15]): > 64 µg/mL; Ratio (Candida albicans [16]): > 128; IC50 at 4 h [17]: > 50 µM; IC50 (A549): > 50 µM; IC50 (MCF7): > 50 µM; IC50 (HepG2): > 50 µM
Fc1ccccc1C1(Cn2ccnc2)COC(c2ccc(-c3ccccc3)s2)=N1 (stereo not drawn)	0.5 (≈ 1.24 µM)	0.125 (≈ 0.31 µM)	0.125 (≈ 0.31 µM)	0.5 (≈ 1.24 µM)	0.25 (≈ 0.62 µM)	0.25 (≈ 0.62 µM)	1 (≈ 2.48 µM)	8 (≈ 19.8 µM)	0.125 (≈ 0.31 µM)	1 (≈ 2.48 µM)	1 (≈ 2.48 µM)	1 (≈ 2.48 µM)	0.125 (≈ 0.31 µM)	0.25 (≈ 0.62 µM)	0.25 (≈ 0.62 µM)	
Fc1cccc(C2(Cn3ccnc3)COC(c3ccc(-c4ccccc4)s3)=N2)c1 (stereo not drawn)	> 64	> 64	8 (≈ 19.8 µM)	> 64	> 64	> 64	> 64	> 64								
COc1cccc(-c2ccc(C3=NC(Cn4ccnc4)(c4ccc(F)cc4)CO3)s2)c1 (stereo not drawn)	> 64	> 64	> 64	> 64	> 64	> 64	> 64	> 64								
COc1ccc(-c2ccc(C3=NC(Cn4ccnc4)(c4ccc(F)cc4)CO3)s2)cc1 (stereo not drawn)	> 64	> 64	> 64	> 64	> 64	> 64	> 64	> 64								
Clc1ccc(C2(Cn3ccnc3)COC(c3ccc(-c4ccccc4)s3)=N2)cc1 (stereo not drawn)	0.25 (≈ 0.595 µM)	0.25 (≈ 0.595 µM)	0.125 (≈ 0.298 µM)	0.5 (≈ 1.19 µM)	2 (≈ 4.76 µM)	16 (≈ 38.1 µM)	16 (≈ 38.1 µM)	8 (≈ 19.1 µM)	1 (≈ 2.38 µM)	0.5 (≈ 1.19 µM)	2 (≈ 4.76 µM)	1 (≈ 2.38 µM)	4 (≈ 9.53 µM)	4 (≈ 9.53 µM)	4 (≈ 9.53 µM)	
Cc1cccc(-c2ccc(C3=NC(Cn4ccnc4)(c4ccc(F)cc4)CO3)s2)c1 (stereo not drawn)	0.5 (≈ 1.2 µM)	0.25 (≈ 0.599 µM)	4 (≈ 9.58 µM)	16 (≈ 38.3 µM)	16 (≈ 38.3 µM)	> 64	> 64	32 (≈ 76.6 µM)								
CCC(C)n1ncn(-c2ccc(N3CCN(c4ccc(OCC5COC(Cn6cncn6)(c6ccc(Cl)cc6Cl)O5)cc4)CC3)cc2)c1=O (stereo not drawn) [ITRACONAZOLE]	0.03 (≈ 0.0425 µM)	0.03 (≈ 0.0425 µM)	0.03 (≈ 0.0425 µM)	0.125 (≈ 0.177 µM)	0.125 (≈ 0.177 µM)	0.125 (≈ 0.177 µM)	0.125 (≈ 0.177 µM)	0.125 (≈ 0.177 µM)								MIC50 (Candida albicans [10]): 16 µg/mL (≈ 22.7 µM); MIC50 (Candida albicans [11]): 32 µg/mL (≈ 45.3 µM); MIC50 (Candida albicans [12]): > 64 µg/mL; MIC50 (Candida albicans [13]): > 64 µg/mL; IC50 at 4 h [17]: > 50 µM; IC50 (A549): > 50 µM; IC50 (MCF7): > 50 µM; IC50 (HepG2): > 50 µM
Cc1cccc(C2(Cn3ccnc3)COC(c3ccc(-c4ccccc4)s3)=N2)c1 (stereo not drawn)	0.125 (≈ 0.313 µM)	2 (≈ 5.01 µM)	4 (≈ 10 µM)	0.5 (≈ 1.25 µM)	> 64	> 64	> 64	> 64	8 (≈ 20 µM)	8 (≈ 20 µM)	4 (≈ 10 µM)	4 (≈ 10 µM)	0.5 (≈ 1.25 µM)	4 (≈ 10 µM)	4 (≈ 10 µM)	
Clc1cccc(C2(Cn3ccnc3)COC(c3ccc(-c4ccccc4)s3)=N2)c1 (stereo not drawn)	> 64	> 64	> 64	2 (≈ 4.76 µM)	4 (≈ 9.53 µM)	> 64	> 64	> 64								
Fc1ccc(C2(Cn3ccnc3)COC(c3ccc(-c4ccc(Cl)cc4)s3)=N2)cc1 (stereo not drawn)	8 (≈ 18.3 µM)	2 (≈ 4.57 µM)	4 (≈ 9.13 µM)	> 64	> 64	> 64	8 (≈ 18.3 µM)	8 (≈ 18.3 µM)								
Fc1ccc(-c2ccc(C3=NC(Cn4ccnc4)(c4ccc(F)cc4)CO3)s2)cc1 (stereo not drawn)	2 (≈ 4.75 µM)	1 (≈ 2.37 µM)	0.5 (≈ 1.19 µM)	8 (≈ 19 µM)	> 64	> 64	16 (≈ 38 µM)	8 (≈ 19 µM)								
